Reference: patent publication US20140243400A1, “COMPOSITIONS COMPRISING CITRIC ACID AND MALIC ACID AND METHODS AND USES THEREOF” (University of Alaska Anchorage, priority 2013, published 2014)
Entries after “also recorded” stand apart in the source; their conditions may differ.

Columns and labels:
[1] = tested on: neutral sphingomyelinase (nSMase); experiment: nSMase-mediated ceramide release in TNF-α-treated neuroblastomas; assay type: cell-based; conditions: neuroblastomas treated with TNF-α in conjunction with citrate or malate at 0.5 μg/ml
Description: Neuroblastomas were not treated (NT) or treated with tumor necrosis factor α (TNF-α), either alone or in conjunction with citrate or malate at 0.5 μg/ml.
Ceramides and ceramide metabolites are important intracellular signaling molecules which influence inflammation, proliferative and apoptotic processes, neurodegeneration, and insulin sensitivity. Elevated ceramides are associated with neurodegenerative disorders including Alzheimer's and Parkinson's disease as well as normal aging.

[2] = Tolerability of oral malate in aged rats; assay type: in vivo; conditions: 24 aged rats, 200 mg/Kg orally, voluntary consumption in water
[3] = tested on: SH-SY5Y human neuroblastoma cells; experiment: Intracellular malate after malate pretreatment and peroxide insult; assay type: cell-based
Description: Intracellular malate decreases 20% in the first 30 minutes following peroxide treatment and continues to slowly decrease over the rest of the time course. SH-SY5Y human neuroblastoma cells were grown to 90% confluency on 100 mm tissue culture dishes in 10% FBS supplemented DMEM, serum starved for 12 hours, and treated with 100 μM H2O2 in serum free DMEM for either 0, 15, 30, 45, 60, or 90 minutes. All treatments were performed in triplicate. Following treatment, neurons were rinsed with PBS, harvested and evaluated for total […] via abcam malate assay kit (ab83391). […] Cells were treated with 0.5 μg/mL malate in serum free DMEM for 1 hour prior to peroxide insult. Malate supplementation increased intracellular malate by nearly 50%.

[4] = tested on: SH-SY5Y human neuroblastoma cells; experiment: Intracellular GSH after malate pretreatment and peroxide insult; assay type: cell-based; conditions: 0.5 μg/mL malate for 1 hour prior to peroxide insult
Description: GSH is widely considered the cornerstone of endogenous redox defense. Intracellular concentrations of total GSH clearly decrease in response to oxidative insult, confirming GSH is actively consumed as part of the endogenous redox defense response in human neurons, specifically to produce regenerate antioxidative enzymes. […] All treatments were performed in triplicate. Following treatment, neurons were rinsed with PBS and evaluated for total GSH (excluding GSSG) via Promega GSH-Glo Glutathione Assay. The assay is based on the conversion of a lucifin derivative into lucifierin in the presence of GSH. […] Cells were treated with 0.5 μg/mL malate in serum free DMEM for 1 hour prior to peroxide insult.

[5] = tested on: Fischer F344 inbred rats; experiment: Spatial memory, rewarded alternation in T-maze, aged rats; assay type: in vivo; conditions: for T-maze alternation: 200 mg/Kg in water, 6 weeks supplementation; for spatial memory vs control rats: aged F344 rats, 200 mg/Kg, T-maze
Description: Spatial memory was measured by alternation in a T-maze. […] Both aged groups supplemented with malic acid performed equivalently to non-impaired rats, at 85% correct alternation, or better.
24 male Fischer F344 inbred rats were evaluated at 10 months and 23 months of age. Half were provided supplemental dietary malate. Following 6 weeks supplementation, spatial memory was evaluated using a rewarded alternation procedure in a T-maze apparatus (10 trials per subject). Healthy, non-impaired, rats alternate at 85% while hippocampectomized rats incapable of encoding spatial memories alternate at chance, 50%. […] The 23 month old, control, rats were severely impaired, hardly scoring better than chance, at 57% alternation. 23 month old malate-supplemented rats alternated at 85%, a score equivalent to a young, not impaired rat. (FIG. 10).

For `O=C(O)CC(O)(CC(=O)O)C(=O)O` [citrate, citric acid], the “nSMase-mediated ceramide release / nSMase activation” value [1] was “able to curb nSMase activation” and the “nSMase-mediated ceramide release / nSMase activation” value ([1]; listed as Citrate) was “significantly decrease”.

With `O=C(O)CC(O)C(=O)O` (stereo not shown) [malate, malic acid] the “nSMase-mediated ceramide release / nSMase activation” value [1] was “significantly decrease; also recorded: able to curb nSMase activation”, the ill effects observed [2] was “no ill effects were observed” and the “intracellular malate after peroxide insult” value ([3]; 0.5 μg/mL malate for 1 hour prior to peroxide insult) was “higher levels than non-treated and non-insulted cells; also recorded: prevent critical depletion of malate”. For the same compound, the “increase of intracellular malate” value ([3]; 0.5 μg/mL malate in serum free DMEM for 1 hour) was ~50%, the “intracellular GSH after peroxide insult” value [4] was “higher levels of GSH than non-treated and non-insulted cells; also recorded: prevent critical depletion of GSH” and the “intracellular GSH vs non-supplemented cells” value ([4]; 0-60 minutes post peroxide) was “significantly higher levels of GSH than non-supplemented cells; also recorded: increase intracellular pools of GSH”. For the same compound, the T-maze alternation ([5]; 10 month old F344 rats) was 92.5%, the T-maze alternation ([5]; 23 month old F344 rats) was 85% and the “spatial memory vs control rats” value [5] was “statistically significant improvement in spatial memory”. For the same compound, the “spatial memory vs control rats” value ([5]; listed as malic acid) was “significantly improves performance in spatial memory” and the T-maze correct alternation ([5]; both aged groups (10 and 23 months), oral 200 mg/Kg) was ≥ 85%.
